PMC9581421, “Functional analysis of a bitter gustatory receptor highly expressed in the larval maxillary galea of Helicoverpa armigera” (PLoS Genetics, 2022)

Target: T1, Gr180 (Helicoverpa armigera, UniProt Z9OE30KH69)
T1 construct: wild type 411 residues (239 + 172 as printed); seven TM domains predicted
T1 sequence (Z9OE30KH69 1-411): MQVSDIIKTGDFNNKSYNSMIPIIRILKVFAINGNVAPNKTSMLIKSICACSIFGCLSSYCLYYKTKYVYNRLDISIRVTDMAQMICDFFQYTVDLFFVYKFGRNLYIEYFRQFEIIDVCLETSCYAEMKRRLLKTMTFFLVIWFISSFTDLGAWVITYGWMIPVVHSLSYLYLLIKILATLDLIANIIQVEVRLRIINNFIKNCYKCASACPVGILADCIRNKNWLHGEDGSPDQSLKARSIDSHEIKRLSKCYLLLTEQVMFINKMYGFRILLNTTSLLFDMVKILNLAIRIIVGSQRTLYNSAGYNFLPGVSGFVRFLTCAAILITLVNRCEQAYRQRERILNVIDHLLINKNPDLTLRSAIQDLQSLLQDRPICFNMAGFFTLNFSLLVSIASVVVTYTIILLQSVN
Assay: two-electrode voltage clamp, Xenopus oocytes
Type: cell-based
Details: 10^-2 M coumarin in Ringer solution; holding potential -80 mV; Gr180 expressed alone; agonist

O=c1ccc2ccccc2o1 [coumarin]
average current at 10^-2 M: 241 nA
